Source: ChEMBL document CHEMBL1159145 (Bioorg Med Chem Lett, 1992)

Tests used:
Substance-P receptor [1] = target: T1, Substance-P receptor (Rattus norvegicus, UniProt P14600); test: Binding affinity towards Tachykinin receptor 1 in rat cerebral cortex membranes was determined by using 125 [I]-BHSP as radioligand; format: cell membranes, Membrane
Substance-P receptor [2] = target: Substance-P receptor (Cavia porcellus, UniProt P30547); test: Binding affinity towards Tachykinin receptor 1 binding in guinea pig cerebral cortex membranes was determined using [3H]SP as the radioligand; format: tissue-based, Membrane
Substance-K receptor = target: T2, Substance-K receptor (Mesocricetus auratus, UniProt P51144); test: Ability to displace the binding of [125I]iodohistidyl-NKA to Tachykinin receptor 2 in hamster urinary bladder membranes was determined.; format: cell membranes, Membrane
T2 sequence (P51144 whole entry): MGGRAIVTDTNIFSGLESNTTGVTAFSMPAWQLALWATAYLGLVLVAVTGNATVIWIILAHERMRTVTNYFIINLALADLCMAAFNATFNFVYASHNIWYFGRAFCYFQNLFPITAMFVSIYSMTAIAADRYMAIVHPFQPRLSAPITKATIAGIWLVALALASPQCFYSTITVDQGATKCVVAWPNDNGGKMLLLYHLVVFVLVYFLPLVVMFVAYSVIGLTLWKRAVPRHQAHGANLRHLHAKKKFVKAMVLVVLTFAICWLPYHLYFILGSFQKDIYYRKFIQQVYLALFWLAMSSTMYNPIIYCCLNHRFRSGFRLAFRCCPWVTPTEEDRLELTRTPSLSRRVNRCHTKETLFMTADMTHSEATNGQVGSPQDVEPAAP

Neuromedin-K receptor = target: T3, Neuromedin-K receptor (Rattus norvegicus, UniProt P16177); test: Ability to displace the binding of [3H]-Senktide to Tachykinin receptor 3 in rat cerebral cortex membranes was determined.; format: cell membranes, Membrane
T3 sequence (P16177 whole entry): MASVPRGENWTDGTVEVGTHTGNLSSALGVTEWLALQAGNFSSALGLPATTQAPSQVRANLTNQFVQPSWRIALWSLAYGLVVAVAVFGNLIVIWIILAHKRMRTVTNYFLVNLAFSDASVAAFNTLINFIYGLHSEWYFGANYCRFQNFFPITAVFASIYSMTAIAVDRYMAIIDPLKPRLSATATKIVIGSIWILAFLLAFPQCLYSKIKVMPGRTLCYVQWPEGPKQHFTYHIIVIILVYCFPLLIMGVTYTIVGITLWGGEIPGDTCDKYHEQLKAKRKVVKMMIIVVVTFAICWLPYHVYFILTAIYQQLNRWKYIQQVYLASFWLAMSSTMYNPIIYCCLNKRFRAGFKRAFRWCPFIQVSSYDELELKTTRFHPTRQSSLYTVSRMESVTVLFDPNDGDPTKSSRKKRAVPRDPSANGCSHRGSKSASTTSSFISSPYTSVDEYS

Substance-P receptor [3] = target: T1, Substance-P receptor; test: The binding affinity towards NK1 receptor in rat cerebral cortex membranes was determined by using 125 [I]-BHSP as radioligand; format: cell membranes, Membrane

T1 sequence (P14600 whole entry): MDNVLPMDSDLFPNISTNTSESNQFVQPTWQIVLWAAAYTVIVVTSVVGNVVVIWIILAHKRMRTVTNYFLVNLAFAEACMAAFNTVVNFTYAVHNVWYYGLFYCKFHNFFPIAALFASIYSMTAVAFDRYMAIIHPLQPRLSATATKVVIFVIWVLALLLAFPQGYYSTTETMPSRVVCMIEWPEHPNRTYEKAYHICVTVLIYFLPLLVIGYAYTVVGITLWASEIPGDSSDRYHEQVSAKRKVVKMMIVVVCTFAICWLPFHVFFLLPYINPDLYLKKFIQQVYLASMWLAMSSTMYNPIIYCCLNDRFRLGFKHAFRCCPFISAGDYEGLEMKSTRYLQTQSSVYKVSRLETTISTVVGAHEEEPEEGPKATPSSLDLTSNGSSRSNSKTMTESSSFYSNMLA
Sequence of Substance-P receptor (Cavia porcellus, UniProt P30547) (P30547 whole entry): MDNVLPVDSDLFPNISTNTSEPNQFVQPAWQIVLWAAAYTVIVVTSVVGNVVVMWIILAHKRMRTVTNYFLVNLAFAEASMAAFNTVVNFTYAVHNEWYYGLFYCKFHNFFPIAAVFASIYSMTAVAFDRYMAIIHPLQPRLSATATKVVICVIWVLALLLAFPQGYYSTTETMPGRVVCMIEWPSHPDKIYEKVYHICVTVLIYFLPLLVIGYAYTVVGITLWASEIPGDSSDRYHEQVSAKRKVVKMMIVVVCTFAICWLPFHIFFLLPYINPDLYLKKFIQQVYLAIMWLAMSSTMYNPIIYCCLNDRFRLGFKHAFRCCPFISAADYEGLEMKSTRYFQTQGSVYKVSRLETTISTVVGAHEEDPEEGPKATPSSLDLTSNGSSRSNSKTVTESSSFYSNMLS

| Structure (SMILES) | IC50 (Substance-P receptor [1]) | IC50 (Substance-P receptor [2]) | IC50 (Substance-K receptor) | IC50 (Neuromedin-K receptor) | IC50 (Substance-P receptor [3]) |
| --- | --- | --- | --- | --- | --- |
| COc1ccccc1CN[C@@H]1C2CCN(CC2)[C@@H]1Cc1ccccc1 | > 1 µM | 1.51 µM | ≥ 100 µM | ≥ 100 µM | – |
| N[C@@H]1C2CCN(CC2)[C@@H]1C(c1ccccc1)c1ccccc1 | > 10 µM | > 10 µM | ≥ 100 µM | ≥ 100 µM | – |
| Fc1ccccc1CN[C@@H]1C2CCN(CC2)[C@@H]1C(c1ccccc1)c1ccccc1 | 0.99 µM | 0.037 µM | ≥ 100 µM | ≥ 100 µM | – |
| Clc1ccccc1CCN[C@@H]1C2CCN(CC2)[C@@H]1C(c1ccccc1)c1ccccc1 | 7.2 µM | 0.16 µM | ≥ 100 µM | ≥ 100 µM | – |
| FC(F)(F)c1ccccc1CN[C@@H]1C2CCN(CC2)[C@@H]1C(c1ccccc1)c1ccccc1 | 0.74 µM | 0.033 µM | ≥ 100 µM | ≥ 100 µM | – |
| COc1ccccc1CN[C@@H]1C2CCN(CC2)[C@@H]1C(c1ccccc1)c1ccccc1 | – | – | ≥ 100 µM | ≥ 100 µM | – |
| Clc1ccccc1CCCN[C@@H]1C2CCN(CC2)[C@@H]1C(c1ccccc1)c1ccccc1 | – | 1.1 µM | ≥ 100 µM | ≥ 100 µM | > 10 µM |
| Cc1ccccc1CN[C@@H]1C2CCN(CC2)[C@@H]1C(c1ccccc1)c1ccccc1 | 0.7 µM | 0.227 µM | ≥ 100 µM | ≥ 100 µM | – |
| Clc1ccccc1CN[C@@H]1C2CCN(CC2)[C@@H]1C(c1ccccc1)c1ccccc1 | 0.11 µM | 0.0085 µM | ≥ 100 µM | ≥ 100 µM | – |
| c1ccc(CN[C@@H]2C3CCN(CC3)[C@@H]2C(c2ccccc2)c2ccccc2)cc1 | 2 µM | 0.052 µM | ≥ 100 µM | ≥ 100 µM | – |
| O=C(N[C@@H]1C2CCN(CC2)[C@@H]1C(c1ccccc1)c1ccccc1)c1ccccc1Cl | > 10 µM | > 10 µM | ≥ 100 µM | ≥ 100 µM | – |
| COc1ccccc1CN[C@H]1C2CCN(CC2)[C@@H]1C(c1ccccc1)c1ccccc1 | – | – | ≥ 100 µM | ≥ 100 µM | – |
| COc1ccccc1CO[C@@H]1C2CCN(CC2)[C@@H]1C(c1ccccc1)c1ccccc1 | ~10 µM | 0.15 µM | ≥ 100 µM | ≥ 100 µM | – |
| CSCC[C@H](NC(=O)[C@H](CC(C)C)NC(=O)CNC(=O)[C@@H](NC(=O)[C@H](Cc1ccccc1)NC(=O)[C@H](CO)NC(=O)[C@H](CC(=O)O)NC(=O)[C@@H](NC(=O)[C@H](CCCCN)NC(=O)[C@@H](N)Cc1cnc[nH]1)[C@@H](C)O)C(C)C)C(N)=O [NEUROKININ A] | – | 0.0035 µM | – | – | – |
| CSCC[C@H](NC(=O)[C@H](CC(C)C)NC(=O)CNC(=O)[C@@H](NC(=O)[C@H](Cc1ccccc1)NC(=O)[C@H](Cc1ccccc1)NC(=O)[C@H](CC(=O)O)NC(=O)[C@H](Cc1c[nH]cn1)NC(=O)[C@H](CCSC)NC(=O)[C@@H](N)CC(=O)O)C(C)C)C(N)=O [NEUROKININ B] | 0.069 µM | 0.013 µM | – | – | – |
